Assay results: patent US9549560B2, “Pesticidal compositions and related methods” (DOW AGROSCIENCES LLC, priority 2013, dated 2017)

Columns and labels:
[1] = tested on: Green Peach Aphid (Myzus persicae); experiment: Bioassay for Green Peach Aphid (GPA) (MYZUPE), foliar spray on cabbage seedlings; assay type: in vivo; conditions: 72 h, 200 ppm foliar spray, graded after three days, Abbott corrected % control, read-out: % Control (or Mortality) rating, GPA
Protocol: Cabbage seedlings grown in 3-inch pots, with 2-3 small (3-5 cm) true leaves, were used as test substrate. The seedlings were infested with 20-50 GPA (wingless adult and nymph stages) one day prior to chemical application. Four pots with individual seedlings were used for each treatment. Test compounds (2 mg) were dissolved in 2 mL of acetone/methanol (1:1) solvent, forming stock solutions of 1000 ppm test compound. The stock solutions were diluted 5× with 0.025% Tween 20 in H2O to obtain the solution at 200 ppm test compound. A hand-held aspirator-type sprayer was used for spraying a solution to both sides of […] leaves until runoff. Reference plants (solvent check) were sprayed with the diluent only containing 20% by volume of acetone/methanol (1:1) solvent. Treated plants were held in a holding room for three days at approximately 25° C. and ambient relative humidity (RH) prior to grading. Evaluation was conducted by counting the number of live aphids per plant under a microscope. Percent control was measured by using Abbott's correction formula (W. S. Abbott, “A Method of Computing the Effectiveness of an Insecticide,” J. Econ. Entomol. 18 (1925), pp. 265-267) as follows. Corrected % Control=100*(X−Y)/X
X=No. of live aphids on solvent check plants and
Y=No. of live aphids on treated plants
(§1) Biological Data for Green Peach Aphid (GPA) (MYZUPE) and Sweetpotato Whitefly-crawler (WF) (BEMITA)” (See Table Section).

[2] = tested on: Sweetpotato Whitefly-Crawler (Bemisia tabaci); experiment: Insecticidal test for Sweetpotato Whitefly-Crawler (WF) (BEMITA) in foliar spray assay on cotton plants; assay type: in vivo; conditions: 216 h, 200 ppm foliar spray, graded after 9 days, Abbott corrected % control, read-out: % Control (or Mortality) rating, WF
Protocol: Cotton plants (Gossypium hirsutum) grown in 3-inch pots, with 1 small (4-5 cm) true leaves, were used as test substrate. The plants were infested with 200-400 whitefly eggs 4-5 days prior to chemical application. Four pots with individual plants were used for each treatment. Test compounds (2 mg) were dissolved in 1 mL of acetone solvent, forming stock solutions of 2000 ppm test compound. The stock solutions were diluted 10× with 0.025% Tween 20 in H2O (diluents) to obtain the solution at 200 ppm test compound. A hand-held aspirator-type sprayer was used for spraying a solution to both sides of cotton leaves until runoff. Reference plants (solvent check) were sprayed with the diluent only containing 10% by volume of acetone solvent. Treated plants were held in a holding room for 9 days at approximately 25° C. and ambient relative humidity (RH) prior to grading. Evaluation was conducted by counting the number of live 3-4 nymph stage per plant under a microscope. Percent control was measured by using Abbott's correction formula (W. S. Abbott, “A Method of Computing the Effectiveness of an Insecticide,” J. Econ. Entomol. 18 (1925), pp. 265-267) as follows. Corrected % Control=100*(X−Y)/X
X=No. of live nymphs on solvent check plants and
Y=No. of live nymphs on treated plants.
as §1

Row | SMILES | mortality at 200 ppm [1] [%] | mortality at 200 ppm [2] [%]
1 | C#CCNc1cn(-c2ccc[n+]([O-])c2)nc1Cl [CA1, 3-(3-Chloro-4-(prop-2-yn-1-ylamino)-1H-pyrazol-1-yl)pyridine 1-oxide] | 0 to 80 | 0 to 80
2 | CCNc1cn(-c2ccc[n+]([O-])c2)nc1C [CA2, 3-(4-(Ethylamino)-3-methyl-1H-pyrazol-1-yl)pyridine 1-oxide] | 0 to 80 | 80 to 100
3 | CNc1cn(-c2ccc[n+]([O-])c2)nc1Cl [CA3, 3-(3-Chloro-4-(methylamino)-1H-pyrazol-1-yl)pyridine 1-oxide] | 80 to 100 | 0 to 80
4 | CCNc1cn(-c2cc(F)c[n+]([O-])c2)nc1Cl [CA4, 3-(3-Chloro-4-(ethylamino)-1H-pyrazol-1-yl)-5-fluoropyridine 1-oxide] | 0 to 80 | 0 to 80
5 | CCNc1cn(-c2ccc[n+]([O-])c2)nc1Cl [Compound C1, 3-(3-chloro-4-(ethylamino)-1H-pyrazol-1-yl)pyridine 1-oxide] | 0 to 80 | 0 to 80
6 | CCN(C(=O)CC[S+]([O-])CCC(F)(F)F)c1cn(-c2ccc[n+]([O-])c2)nc1Cl (stereo not drawn) [Compound F1, 3-(3-chloro-4-(N-ethyl-3-((3,3,3-trifluoropropyl)sulfinyl)propanamido)-1H-pyrazol-1-yl)pyridine 1-oxide] | 80 to 100 | 80 to 100
7 | CCN(C(=O)CCSC)c1cn(-c2ccc[n+]([O-])c2)nc1Cl [Compound F2, 3-(3-Chloro-4-(N-ethyl-3-(methylthio)propanamido)-1H-pyrazol-1-yl) pyridine 1-oxide] | 80 to 100 | 80 to 100
8 | CCN(C(=O)C(C)CS(C)(=O)=O)c1cn(-c2ccc[n+]([O-])c2)nc1C (stereo not drawn) [Compound F4, 3-(4-(N-ethyl-2-methyl-3-(methylsulfonyl)propanamido)-3-methyl-1H-pyrazol-1-yl)pyridine-1-oxide] | 80 to 100 | 80 to 100
9 | CCN(C(=O)CCSCCC(F)(F)F)c1cn(-c2ccc[n+]([O-])c2)nc1Cl [Compound F5, 3-(3-chloro-4-(N-ethyl-3-((3,3,3-trifluoropropyl)thio)propanamido)-1H-pyrazol-1-yl)pyridine 1-oxide] | 80 to 100 | 80 to 100
10 | CCN(C(=O)C(C)C[S+](C)[O-])c1cn(-c2ccc[n+]([O-])c2)nc1Cl (stereo not drawn) [Compound F6] | 80 to 100 | 80 to 100
11 | CCN(C(=O)C(C)[S+]([O-])CC(F)(F)F)c1cn(-c2ccc[n+]([O-])c2)nc1Cl (stereo not drawn) [Compound F7, 3-(3-Chloro-4-(N-ethyl-2-((2,2,2-trifluoroethyl)sulfinyl)propanamido)-1H-pyrazol-1-yl)pyridine 1-oxide] | 80 to 100 | 0 to 80
12 | CCN(C(=O)C(C)S(=O)(=O)CC(F)(F)F)c1cn(-c2ccc[n+]([O-])c2)nc1Cl (stereo not drawn) [Compound F8, 3-(3-Chloro-4-(N-ethyl-2-((2,2,2-trifluoroethyl)sulfonyl)propanamido)-1H-pyrazol-1-yl)pyridine 1-oxide] | 80 to 100 | 80 to 100
13 | CCN(C(=O)CC[S+](C)[O-])c1cn(-c2ccc[n+]([O-])c2)nc1Cl (stereo not drawn) [Compound F9, 3-(3-Chloro-4-(N-ethyl-3-(methylsulfinyl)propanamido)-1H-pyrazol-1-yl) pyridine 1-oxide] | 80 to 100 | 80 to 100
14 | CCN(C(=O)C(C)CSC)c1cn(-c2ccc[n+]([O-])c2)nc1Cl (stereo not drawn) [Compound F10, 3-(3-Chloro-4-(N-ethyl-2-methyl-3-(methylthio)propajamido)-1H-pyrazol-1-yl)pyridine 1-oxide] | 80 to 100 | 80 to 100
15 | CCN(C(=O)CCS(=O)(=O)CC1CC1(F)F)c1cn(-c2ccc[n+]([O-])c2)nc1Cl (stereo not drawn) [Compound F11] | 80 to 100 | 80 to 100
16 | CCN(C(=O)C(C)CS(C)(=O)=O)c1cn(-c2ccc[n+]([O-])c2)nc1Cl (stereo not drawn) [Compound F12, 3-(3-Chloro-4-(N-ethyl-2-methyl-3-(methylsulfonyl)propanamido)-1H-pyrazol-1-yl) 1-oxide] | 80 to 100 | 80 to 100
17 | CCN(C(=O)CCS(=O)(=O)CCC(F)(F)F)c1cn(-c2ccc[n+]([O-])c2)nc1Cl [Compound F13, 3-(3-chloro-4-(N-ethyl-3-((3,3,3-trifluoropropyl)sulfonyl)propanamido)-1H-pyrazol-1-yl)pyridine 1-oxide] | 80 to 100 | 80 to 100
18 | CN(C(=O)CCSCCC(F)(F)F)c1cn(-c2ccc[n+]([O-])c2)nc1Cl [Compound P1, 3-(3-chloro-4-(N-methyl-3-((3,3,3-trifluoropropyl)thio)propanamido)-1H-pyrazol-1-yl)pyridine 1-oxide] | 80 to 100 | 80 to 100
19 | CN(C(=O)CC[S+]([O-])CCC(F)(F)F)c1cn(-c2ccc[n+]([O-])c2)nc1Cl (stereo not drawn) [Compound P2, 3-(3-chloro-4-(N-methyl-3-((3,3,3-trifluoropropyl)sulfinyl)propanamido)-1H-pyrazol-1-yl)pyridine 1-oxide] | 80 to 100 | 80 to 100
20 | C#CCN(C(=O)CCSCCC(F)(F)F)c1cn(-c2ccc[n+]([O-])c2)nc1Cl [Compound P9, 3-(3-Chloro-4-(N-(prop-2-yn-1-yl)-3-((3,3,3-trifluoropropyl)thio)propanamido)-1H-pyrazol-1-yl)pyridine 1-oxide] | 80 to 100 | 80 to 100
21 | C#CCN(C(=O)CC[S+]([O-])CCC(F)(F)F)c1cn(-c2ccc[n+]([O-])c2)nc1Cl (stereo not drawn) [Compound P10, 3-(3-chloro-4-(N-(prop-2-yn-1-yl)-3-((3,3,3-trifluoropropyl)sulfinyl)propanamido)-1H-pyrazol-1-yl)pyridine 1-oxide] | 80 to 100 | 80 to 100
22 | CCN(C(=O)CCSCCC(F)(F)F)c1cn(-c2ccc[n+]([O-])c2)nc1C [Compound P18, 3-(4-(N-Ethyl-3-((3,3,3-trilluoropropyl)thio)propanamido)-3-methyl-1H-pyrazol-1-yl)pyridine 1-oxide] | 80 to 100 | 80 to 100
23 | CCN(C(=O)CC[S+]([O-])CCC(F)(F)F)c1cn(-c2ccc[n+]([O-])c2)nc1C (stereo not drawn) [Compound P19, 3-(4-(N-Ethyl-3-((3,3,3-trilluoropropyl)sulfinyl)propanamido)-3-methyl-1H-pyrazol-1-yl)pyridine 1-oxide] | 80 to 100 | 80 to 100
24 | CCN(C(=O)CCSCCC(F)(F)F)c1cn(-c2cc(F)c[n+]([O-])c2)nc1Cl [Compound P36, 3-(3-Chloro-4-(N-ethyl-3-((3,3,3-trilluoropropyl)thio)propanamido)-1H-pyrazol-1-yl)-5-fluoropyridine 1-oxide] | 80 to 100 | 80 to 100
25 | CCN(C(=O)CC[S+]([O-])CCC(F)(F)F)c1cn(-c2cc(F)c[n+]([O-])c2)nc1Cl (stereo not drawn) [Compound P37, 3-(3-Chloro-4-(N-ethyl-3-((3,3,3-trilluoropropyl)sulfinyl)propanamido)-1H-pyrazol-1-yl)-5-fluoropyridine 1-oxide] | 80 to 100 | 80 to 100
26 | CCN(C(=O)CCSCC1CC1(F)F)c1cn(-c2ccc[n+]([O-])c2)nc1Cl (stereo not drawn) [Compound P48, 3-(3-Chloro-4-(3-(((2,2-difluorocyclopropyl)methyl)thio)-N-ethylpropanamido)-1H-pyrazol-1-yl)pyridine 1-oxide] | 80 to 100 | 80 to 100
27 | CCN(C(=O)C(C)S(C)(=O)=O)c1cn(-c2ccc[n+]([O-])c2)nc1Cl (stereo not drawn) [FA13, 3-(3-chloro-4-(N-ethyl-2-(methylsulfonyl)propanamido)-1H-pyrazol-1-yl)pyridine 1-oxide] | 80 to 100 | –
28 | CC(C(=O)N(CC1CC1)c1cn(-c2ccc[n+]([O-])c2)nc1Cl)S(C)(=O)=O (stereo not drawn) [FA14, 3-(3-chloro-4-(N-(cyclopropylmethyl)-2-(methylsulfonyl)propanamido)-1H-pyrazol-1-yl)pyridine 1-oxide] | 80 to 100 | –
